Measured values from PubChem BioAssay AID1963827 (Molecular Pharmacology Branch, DTP, NCI, 2024).

Test system: 994946-033-R-J1-PDC complex spheroid viability
Experiment: Anticancer human tumor 994946-033-R-J1-PDC patient-derived melanoma cell line growth inhibition [POLQ]
Conditions: for IC50: curve of first compound; for viability, T/C: stronger effect = lower value
Summary of the method: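 Complex spheroid viability model combining PDC tumour cells with endothelial (HUVEC) and MSC stromal cells. Novobiocin, ART-558 or RP6685 were tested singly and in combination with standard and investigational anticancer drugs. Each was titrated in half-log steps from near clinical Cmax, or from 10 microM where Cmax was unknown.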

[1] = second compound 0.0316 µM, first compound 0.0316 µM
[2] = second compound 0.0316 µM, first compound 0.1 µM
[3] = second compound 0.0316 µM, first compound 0.316 µM
[4] = second compound 0.0316 µM, first compound 1 µM
[5] = second compound 0.0316 µM, first compound 3.16 µM
[6] = second compound 0.0316 µM, first compound 10 µM
[7] = second compound 0.1 µM, first compound 0.0316 µM
[8] = second compound 0.1 µM, first compound 0.1 µM
[9] = second compound 0.1 µM, first compound 0.316 µM
[10] = second compound 0.1 µM, first compound 1 µM
[11] = second compound 0.1 µM, first compound 3.16 µM
[12] = second compound 0.1 µM, first compound 10 µM
[13] = second compound 0.316 µM, first compound 0.0316 µM
[14] = second compound 0.316 µM, first compound 0.1 µM
[15] = second compound 0.316 µM, first compound 0.316 µM
[16] = second compound 0.316 µM, first compound 1 µM
[17] = second compound 0.316 µM, first compound 3.16 µM
[18] = second compound 0.316 µM, first compound 10 µM
[19] = second compound 1 µM, first compound 0.0316 µM
[20] = second compound 1 µM, first compound 0.1 µM
[21] = second compound 1 µM, first compound 0.316 µM
[22] = second compound 1 µM, first compound 1 µM
[23] = second compound 1 µM, first compound 3.16 µM
[24] = second compound 1 µM, first compound 10 µM
[25] = second compound 3.16 µM, first compound 0.0316 µM
[26] = second compound 3.16 µM, first compound 0.1 µM
[27] = second compound 3.16 µM, first compound 0.316 µM
[28] = second compound 3.16 µM, first compound 1 µM
[29] = second compound 3.16 µM, first compound 3.16 µM
[30] = second compound 3.16 µM, first compound 10 µM
[31] = second compound 10 µM, first compound 0.0316 µM
[32] = second compound 10 µM, first compound 0.1 µM
[33] = second compound 10 µM, first compound 0.316 µM
[34] = second compound 10 µM, first compound 1 µM
[35] = second compound 10 µM, first compound 3.16 µM
[36] = second compound 10 µM, first compound 10 µM
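Also: spheroids exposed to drugs for 7 days.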
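For viability, T/C in this document: 100% = DMSO vehicle treated spheroids.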

COc1ccc([C@@H](O)c2cc(-c3ncnc4cc(N5CCOCC5)ccc34)c(F)cc2Cl)nn1 + Cc1cccc(N(C)C(=O)C2C(O)CCN2c2nc(C)cc(C(F)(F)F)c2C#N)c1 was tested, and the IC50 (second compound 0.0316 µM) was 4.06 µM, the IC50 (second compound 0.1 µM) was 6.54 µM and the IC50 (second compound 0.316 µM) was 2.25 µM. For the same compound, the IC50 (second compound 1 µM) was 6.16 µM, the IC50 (second compound 3.16 µM) was 2.65 µM and the IC50 (second compound 10 µM) was 6.2 µM. It also gave a viability, T/C [1] of 108%, a viability, T/C [2] of 95.1% and a viability, T/C [3] of 106%. The viability, T/C [4] was 64.1%, the viability, T/C [5] was 60.7% and the viability, T/C [6] was 32.5%. It also gave a viability, T/C [7] of 90.9%, a viability, T/C [8] of 105% and a viability, T/C [9] of 93.3%. For the same compound, the viability, T/C [10] was 78.5%, the viability, T/C [11] was 71.6% and the viability, T/C [12] was 38.4%. For the same compound, the viability, T/C [13] was 118%, the viability, T/C [14] was 94.1% and the viability, T/C [15] was 103%. The viability, T/C [16] was 60.4%, the viability, T/C [17] was 45.6% and the viability, T/C [18] was 45.1%. It also gave a viability, T/C [19] of 104%, a viability, T/C [20] of 96.6% and a viability, T/C [21] of 82%. For the same compound, the viability, T/C [22] was 105%, the viability, T/C [23] was 60.9% and the viability, T/C [24] was 42.1%. The viability, T/C [25] was 115%, the viability, T/C [26] was 125% and the viability, T/C [27] was 101%. The viability, T/C [28] was 60.5%, the viability, T/C [29] was 56.8% and the viability, T/C [30] was 38.6%. The viability, T/C [31] was 74.9%, the viability, T/C [32] was 101% and the viability, T/C [33] was 60.3%. For the same compound, the viability, T/C [34] was 76.6%, the viability, T/C [35] was 62.7% and the viability, T/C [36] was 41.1%.
O=C(c1cc(Cc2n[nH]c(=O)c3ccccc23)ccc1F)N1CCN(C(=O)C2CC2)CC1 + Nc1ccc(C#CCN(C(=O)Cc2ncc(C(F)(F)F)cc2C(F)(F)F)c2ccc(F)cc2)nn1 showed an IC50 (second compound 0.0316 µM) of 6.71 µM, an IC50 (second compound 0.1 µM) of 6.45 µM and an IC50 (second compound 0.316 µM) of 4.09 µM. It also gave an IC50 (second compound 1 µM) of 5.26 µM, an IC50 (second compound 3.16 µM) of 3.82 µM and an IC50 (second compound 10 µM) of 7 µM. It also gave a viability, T/C [1] of 116%, a viability, T/C [2] of 88.8% and a viability, T/C [3] of 101%. The viability, T/C [4] was 72.6%, the viability, T/C [5] was 76.6% and the viability, T/C [6] was 37.3%. It also gave a viability, T/C [7] of 61.7%, a viability, T/C [8] of 113% and a viability, T/C [9] of 70.5%. For the same compound, the viability, T/C [10] was 78.6%, the viability, T/C [11] was 83.5% and the viability, T/C [12] was 30.6%. It also gave a viability, T/C [13] of 101%, a viability, T/C [14] of 84.9% and a viability, T/C [15] of 84%. The viability, T/C [16] was 55.8%, the viability, T/C [17] was 70.8% and the viability, T/C [18] was 29.6%. For the same compound, the viability, T/C [19] was 78.9%, the viability, T/C [20] was 111% and the viability, T/C [21] was 66%. The viability, T/C [22] was 92.8%, the viability, T/C [23] was 55.9% and the viability, T/C [24] was 42.6%. It also gave a viability, T/C [25] of 94.8%, a viability, T/C [26] of 80.3% and a viability, T/C [27] of 77.8%. The viability, T/C [28] was 58.8%, the viability, T/C [29] was 57.9% and the viability, T/C [30] was 37.1%. For the same compound, the viability, T/C [31] was 66.4%, the viability, T/C [32] was 87.3% and the viability, T/C [33] was 70.3%. It also gave a viability, T/C [34] of 92.3%, a viability, T/C [35] of 80.1% and a viability, T/C [36] of 36.8%.
